Data as given in US5216001A, “Indole derivatives” (H. Lunbeck A/S, priority 1990, dated 1993).
Like-named read-outs stand apart in the source and are kept apart here.

Legend:
[1] = biological target: T1, serotonin S2 (5-HT2) receptors (Rattus norvegicus, UniProt P14842); assay: inhibition of 3H-ketanserin binding to serotonin S2 (5-HT2) receptors in rat cortex in vitro; conditions: 3H-ketanserin 0.5 nM, rat cortex membranes, read-out: Binding IC50, 3H Ket.
T1 construct: cortical tissue is dissected and weighed; from tissue; host or cells: cerebral cortex membranes of male Wistar (Mol:Wist) rats

DA D-2 = biological target: T2, DA D-2 (Rattus norvegicus, UniProt P61169); assay: antagonism of pergolide-induced circling behaviour in rats with unilateral 6-OHDA lesions; type: in vivo; conditions: sc
T2 construct: Male Wistar rats (Mol:Wist) weighing about 200 g at the time of operation are used; from tissue; host or cells: living male Wistar (Mol:Wist) rats with unilateral 6-OHDA lesions (in vivo, endogenous receptor)
Description: ANTAGONISM OF PERGOLIDE-INDUCED CIRCLING BEHAVIOUR IN RATS WITH UNILATERAL 6-OHDA LESIONS
Dopamine (DA) D-2 agonists induce contralateral circling behaviour in rats with 6-OHDA lesions. Pergolide-induced circling is antagonized by DA D-2 antagonists.
Male Wistar rats (Mol:Wist) weighing about 200 g at the time of operation are used. Unilateral lesions are made in pentobarbital anaesthetized rats by injection of 6-OHDA. HCl 9.7 μg/μl (equivalent to 8 μg free base) per 4 min. into the rostral tip of the substantia nigra. The saline solution contains ascorbic acid 0.2 mg/ml, is bubbled with N2 and is kept ice-cold. The experiments are done when stable contralateral circling responses to pergolide (0.05 μmol/kg, s.c.) are obtained. The circling response is measured in rotometer bowls. Only rats showing more than 400 complete turns in 2 hrs control session are used. Dose-response curves are obtained by alternating test and control sessions on a weekly basis. The antagonists are injected s.c. 2 hrs before the agonist. The effect of individual doses of test drugs is calculated as per cent of the mean effect of control sessions one week before and one week after the test session for each rat. ED50 values are calculated by log-probit analysis. Four to eight rats are used at each dosage.

5-HT2 = biological target: T3, 5-HT2 (Rattus norvegicus, UniProt P14842); assay: quipazine inhibition (quipazine-induced head twitches in rats); type: in vivo
T3 construct: Four rats, male Wistar (Mol:Wist) SPF rats weighing 170-240 g; from tissue; host or cells: living male Wistar (Mol:Wist) SPF rats (in vivo, endogenous receptor)
Description: Quipazine is a 5-HT2 agonist, which induces head twitches in rats. The test is a test for 5-HT2 -antagonistic effect testing the ability to inhibit head twitches. The method and test results for some reference substances are published by Arnt et al. (Drug Development Research, 16, 59-70, 1989).
Test substance is injected s.c. 2 hrs before or p.o. 24 hrs before quipazine administration (6.8 mg/kg, s.c., dimaleate). Four rats, male Wistar (Mol:Wist) SPF rats weighing 170-240 g, are used at each dose level. A control group is included each test day. By repeated testing (2, 24 hrs) the control group is the same, however. After quipazine administration the rats are individually placed in the observation cages and head twitches are counted in an observation period of 30-40 min. after injection of quipazine.
Total number of head twitches in each group is calculated and the result for each dose is expressed as per cent of the response in the control group. ED50 values are calculated by log-probit analysis. The test must be repeated if the average number of head twitches is lower than 9 in the control group.

[2] = po, 24 h, read-out: Quipazine inhibition ED50, 24h (po)
[3] = sc, 2 h, read-out: Quipazine inhibition ED50, 2h (sc)
[4] = read-out: Pergolide rot. inhibition ED50, 2h (sc), 6-OHDA lesions, s.c., 2 h before pergolide

T2 sequence (P61169 whole entry): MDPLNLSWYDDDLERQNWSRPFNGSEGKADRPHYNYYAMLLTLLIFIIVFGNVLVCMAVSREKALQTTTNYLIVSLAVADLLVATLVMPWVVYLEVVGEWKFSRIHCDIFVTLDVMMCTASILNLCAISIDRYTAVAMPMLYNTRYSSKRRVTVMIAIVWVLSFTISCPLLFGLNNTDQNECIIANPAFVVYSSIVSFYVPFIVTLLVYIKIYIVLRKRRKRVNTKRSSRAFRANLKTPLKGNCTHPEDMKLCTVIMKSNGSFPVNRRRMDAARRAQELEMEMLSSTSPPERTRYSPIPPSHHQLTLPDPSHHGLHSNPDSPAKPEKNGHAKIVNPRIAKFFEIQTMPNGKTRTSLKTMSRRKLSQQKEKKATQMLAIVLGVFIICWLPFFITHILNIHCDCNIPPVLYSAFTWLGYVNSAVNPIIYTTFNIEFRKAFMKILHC
T3 sequence (P14842 whole entry): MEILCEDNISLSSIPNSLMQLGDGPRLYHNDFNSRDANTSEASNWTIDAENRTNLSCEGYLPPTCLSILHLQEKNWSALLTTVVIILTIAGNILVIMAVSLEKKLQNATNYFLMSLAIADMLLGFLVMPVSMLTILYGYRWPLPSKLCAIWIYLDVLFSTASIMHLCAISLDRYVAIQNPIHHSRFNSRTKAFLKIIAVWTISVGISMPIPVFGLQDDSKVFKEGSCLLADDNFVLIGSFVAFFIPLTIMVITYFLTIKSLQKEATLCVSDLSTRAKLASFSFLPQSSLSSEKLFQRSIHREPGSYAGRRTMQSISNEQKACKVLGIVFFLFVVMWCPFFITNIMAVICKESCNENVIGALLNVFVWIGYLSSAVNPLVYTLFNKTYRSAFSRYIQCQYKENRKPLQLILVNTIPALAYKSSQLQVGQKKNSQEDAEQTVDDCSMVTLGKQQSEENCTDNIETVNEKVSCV
T1 sequence (P14842 whole entry): as above

Row | Compound | IC50 [1] [nM] | ED50 (DA D-2; 2 h, read-out: Pergolide rot. inhibition ED50, 2h (sc)) [µmol/kg] | ED50 (5-HT2; [2]) [µmol/kg] | ED50 (5-HT2; [3]) [µmol/kg] | ED50 (DA D-2; [4]) [µmol/kg] | Quipazine inhibition ED50, 2h (sc) (5-HT2; s.c., 2 h before quipazine) [µmol/kg]
1 | CC(C)N1CCN(CCN2CCC(c3cn(-c4ccc(F)cc4)c4cc(Cl)ccc34)CC2)C1=O [Compound 4a, 6-chloro-1-(4-fluorophenyl)-3-[1-[2-[3-(2-propyl)-2-imidazolidinon-1-yl]ethyl]-4-piperidyl]-1H-indole] | 1.5 | > 17 | 0.06 | 0.11 |  | 
2 | Cc1ccc2c(C3CCN(CCN4CCNC4=O)CC3)cn(-c3ccc(F)cc3)c2c1 [Compound 4g, 1-(4-fluorophenyl)-3-[1-[2-(2-imidazolidinon-1-yl)ethyl]-4-piperidyl]-6-methyl-1H-indole] | 0.8 |  | 0.04 | 0.02 | > 24 | 
3 | Cc1ccc2c(C3CCN(CCN4CCN(C(C)C)C4=O)CC3)cn(-c3ccc(F)cc3)c2c1 [Compound 5a, 1-(4-fluorophenyl)-6-methyl-3-[1-[2-[3-(2-propyl)-2-imidazolidinon-1-yl]ethyl]-4-piperidyl]-1H-indole] | 1.6 |  | 0.11 | 0.04 | > 18 | 
4 | OCCN1CCN(c2cn(-c3ccc(F)cc3)c3ccc(C(F)(F)F)cc23)CC1 [Lu 21-152, 1-(4-fluorophenyl)-3-[4-(2-hydroxyethyl)-1-piperazinyl]-5-trifluoromethyl-1H-indole, reference compound] | 1.4 |  |  |  | 0.02 | 0.02
